Earlier results in US12673009B2, “Dental material” (King's College London, priority 2020, dated 2026).

How the values were obtained:
[1] = Tylkowski et al., 2013

## [Li] [lithium]
other
  safe therapeutic range of blood levels for patients on lithium therapies: 4.2-8.3 ppm
[1]
  lithium concentration reported to be toxic: ~700 ppm
